Data as given in patent US20040133938A1, “Use of lipoic acid in plant culture media” (priority 2002, published 2004).

System: A3244 soybean seed axis explants
Test: Soybean Agrobacterium transformation, lipoic acid in co-culture media
Type: cell-based
Procedure: Dry A3244 soybean seeds were germinated by soaking in sterile distilled water (SDW) for three minutes, drained and allowed to slowly imbibe for 2 hours at which time Bean Germination Media (BGM) was added. At approximately 12 hours, seed axis explants were isolated by removing seed coats and cotyledons. Inoculation occurred 14 hours after the addition of SDW.
Explants were placed into sterile Plantcons™ with 20 mL of pMON15737/ABI (FIG. 3) and resuspended to an optical density A660 of approximately 0.3 in 1/10 Gamborg's B5 media (Gamborg et al., Exp. Cell Res., 50:151-158, 1968) containing 3% glucose, 1.68 mg/L BAP, 3.9 g/L MES, […] acetosyringone, 1 mM galactronic acid, and 0.25 mg/L GA3. Each Plantcon™ was sonicated for 20 seconds in a L&R Quantrex S140 sonicator that contained SDW+0.1% Triton X100 in the bath. Plantcons™ were held in place at approximately 2.5 cm below the surface of the bath liquid. Following sonication, explants were inoculated for an additional hour while shaking gently on an orbital shaker at ˜90 RPM. After inoculation, the Agrobacterium was removed. […] Co-culture media consisted of 1/10 Gamborg's B5 media containing 5% glucose, 1.68 mg/L BAP, 3.9 g/L, […] acetosyringone, 1 mM galactronic acid and 0.25 mg/L GA3. Explants were incubated at 23° C. in the dark for 3 days.
Lipoic acid was dissolved in either ethanol or potassium hydroxide to make 100 mg/mL stock. […]
Following co-culture, explants were transferred to solid Woody Plant Media (WPM) (McCown & Lloyd, Proc. International Plant Propagation Soc., 30:421, 1981) containing 2% sucrose, 200 mg/L carbenicillin, 100 mg/L Timetin (ticarcillin+clavulanic acid), +/−100 mg/L cefotaxime, 60 mg/L Benomyl, and 75 μM glyphosate. All explants were placed at 28° C., 16-hour light/8-hour dark photoperiod. A second transfer to the same media was made after two weeks.
Shoots were cut 5-8 weeks post-inoculation and rooted on Bean Rooting Media (BRM) containing 25 μM glyphosate and 100 mg/L Timetin.

[1] = 5 uM LA, KOH, 248 explants, Table 12
[2] = 5 uM LA, 244 explants, Table 12
[3] = 10 uM LA, KOH, 240 explants, Table 12
[4] = 10 uM LA, 247 explants, Table 12
[5] = 50 uM LA, KOH, 246 explants, Table 12
[6] = 50 uM LA, 242 explants, Table 12
[7] = 100 uM LA, KOH, 246 explants, Table 12
[8] = 100 uM LA, 396 explants, Table 12
[9] = 250 uM LA, KOH, 505 explants, Table 11
[10] = 250 uM LA, 246 explants, Table 12
[11] = 250 uM LA, 486 explants, Table 11
[12] = 500 uM LA*, 171 explants, Table 12
[13] = 500 uM LA, KOH, 462 explants, Table 11
[14] = 500 uM LA, 531 explants, Table 11
[15] = 750 uM LA, KOH, 454 explants, Table 11
[16] = 750 uM LA, 535 explants, Table 11
[17] = 1000 uM LA, KOH, 471 explants, Table 11
[18] = 1000 uM LA, 530 explants, Table 11
[19] = 1500 uM LA, KOH, 498 explants, Table 11
[20] = 1500 uM LA, 538 explants, Table 11

O=C(O)CCCCC1CCSS1 (centres unmarked) [lipoic acid, 1,2-dithiolane-3-pentanoic acid]
Shooting Frequency [1]: 5%
Total Rooted Plants [1]: 2
Total Shoots [1]: 13
Transformation Efficiency [1]: 0.8%
Shooting Frequency [2]: 7%
Total Rooted Plants [2]: 3
Total Shoots [2]: 18
Transformation Efficiency [2]: 1.2%
Shooting Frequency [3]: 5%
Total Rooted Plants [3]: 0
Total Shoots [3]: 13
Transformation Efficiency [3]: 0.0%
Shooting Frequency [4]: 6%
Total Rooted Plants [4]: 0
Total Shoots [4]: 14
Transformation Efficiency [4]: 0.0%
Shooting Frequency [5]: 7%
Total Rooted Plants [5]: 1
Total Shoots [5]: 17
Transformation Efficiency [5]: 0.4%
Shooting Frequency [6]: 9%
Total Rooted Plants [6]: 1
Total Shoots [6]: 22
Transformation Efficiency [6]: 0.4%
Shooting Frequency [7]: 7%
Total Rooted Plants [7]: 2
Total Shoots [7]: 18
Transformation Efficiency [7]: 0.8%
Shooting Frequency [8]: 10%
Total Rooted Plants [8]: 3
Total Shoots [8]: 39
Transformation Efficiency [8]: 0.8%
Rooted Plants [9]: 13
Shooting Frequency [9]: 12%
Total Shoots [9]: 63
Transformation Efficiency [9]: 2.6%
Shooting Frequency [10]: 13%
Total Rooted Plants [10]: 9
Total Shoots [10]: 32
Transformation Efficiency [10]: 3.7%
Rooted Plants [11]: 7
Shooting Frequency [11]: 14%
Total Shoots [11]: 69
Transformation Efficiency [11]: 1.4%
Shooting Frequency [12]: 11%
Total Rooted Plants [12]: 5
Total Shoots [12]: 19
Transformation Efficiency [12]: 2.9%
Rooted Plants [13]: 7
Shooting Frequency [13]: 10%
Total Shoots [13]: 44
Transformation Efficiency [13]: 1.5%
Rooted Plants [14]: 9
Shooting Frequency [14]: 12%
Total Shoots [14]: 64
Transformation Efficiency [14]: 1.7%
Rooted Plants [15]: 7
Shooting Frequency [15]: 12%
Total Shoots [15]: 56
Transformation Efficiency [15]: 1.5%
Rooted Plants [16]: 9
Shooting Frequency [16]: 12%
Total Shoots [16]: 62
Transformation Efficiency [16]: 1.7%
Rooted Plants [17]: 6
Shooting Frequency [17]: 8%
Total Shoots [17]: 40
Transformation Efficiency [17]: 1.3%
Rooted Plants [18]: 12
Shooting Frequency [18]: 10%
Total Shoots [18]: 52
Transformation Efficiency [18]: 2.3%
Rooted Plants [19]: 10
Shooting Frequency [19]: 11%
Total Shoots [19]: 57
Transformation Efficiency [19]: 2.0%
Rooted Plants [20]: 13
Shooting Frequency [20]: 10%
Total Shoots [20]: 53
Transformation Efficiency [20]: 2.4%
increase of transformation frequency (lipoic acid concentration of 250 μM): about ninefold
effect on transformation efficiency, shoot and rooted plant production (lipoic acid concentrations of 250 μM to 1500 μM): increased transformation efficiency
effectiveness in the soybean transformation protocol (low levels of lipoic acid (5 to 100 μM)): not particularly effective
